Assay results reported in article PMC3961306, “Comparison of the Cancer Gene Targeting and Biochemical Selectivities of All Targeted Kinase Inhibitors Approved for Clinical Use” (PLoS ONE, 2014).

Legend:
Test in all cases: Kinase profiling in a biochemical assay panel (mobility shift assays and ELISA), %-inhibition at 1 μM; selectivity entropy
[1] = biological target: panel of more than 300 wild-type and mutant kinases (313 kinase panel) (Homo sapiens, UniProt P53355); details: kinase DAPK1; compound at 1 μM
[2] = biological target: panel of more than 300 wild-type and mutant kinases (313 kinase panel) (Homo sapiens, UniProt P06239); details: kinase LCK; compound at 1 μM
[3] = biological target: panel of more than 300 wild-type and mutant kinases (313 kinase panel) (Homo sapiens, UniProt P29597); details: kinase TYK2; compound at 1 μM
[4] = biological target: T1, panel of more than 300 wild-type and mutant kinases (313 kinase panel) (Homo sapiens, UniProt Q12866); details: kinase MER; compound at 1 μM
T1 sequence (Q12866 21-999): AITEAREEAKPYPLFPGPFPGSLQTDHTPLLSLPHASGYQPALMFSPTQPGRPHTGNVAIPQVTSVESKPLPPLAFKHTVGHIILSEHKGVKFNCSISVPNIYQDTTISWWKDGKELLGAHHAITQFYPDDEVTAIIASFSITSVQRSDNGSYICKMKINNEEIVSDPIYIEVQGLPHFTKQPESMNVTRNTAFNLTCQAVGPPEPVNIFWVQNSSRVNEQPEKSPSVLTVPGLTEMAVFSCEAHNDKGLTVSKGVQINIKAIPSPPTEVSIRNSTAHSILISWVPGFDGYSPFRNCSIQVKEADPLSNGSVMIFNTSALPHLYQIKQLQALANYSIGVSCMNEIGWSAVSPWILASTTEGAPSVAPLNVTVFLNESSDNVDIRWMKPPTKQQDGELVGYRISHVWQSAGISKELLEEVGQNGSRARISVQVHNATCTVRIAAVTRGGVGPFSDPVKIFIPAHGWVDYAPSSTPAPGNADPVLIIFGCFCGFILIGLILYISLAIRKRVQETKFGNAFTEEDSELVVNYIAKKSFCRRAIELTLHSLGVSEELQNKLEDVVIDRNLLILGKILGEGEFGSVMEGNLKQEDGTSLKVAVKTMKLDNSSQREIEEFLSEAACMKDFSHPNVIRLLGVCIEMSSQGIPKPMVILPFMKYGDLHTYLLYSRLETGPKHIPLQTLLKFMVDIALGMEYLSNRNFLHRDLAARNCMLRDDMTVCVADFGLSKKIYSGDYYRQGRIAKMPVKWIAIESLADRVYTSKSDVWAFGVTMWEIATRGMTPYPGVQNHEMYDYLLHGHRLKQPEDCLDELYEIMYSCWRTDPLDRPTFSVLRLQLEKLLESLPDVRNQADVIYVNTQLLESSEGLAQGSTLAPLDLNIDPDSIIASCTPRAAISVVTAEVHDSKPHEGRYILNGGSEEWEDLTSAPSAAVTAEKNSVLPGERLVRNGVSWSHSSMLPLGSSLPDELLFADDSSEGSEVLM

[5] = biological target: panel of more than 300 wild-type and mutant kinases (313 kinase panel) (Homo sapiens, UniProt P16591); details: kinase FER; compound at 1 μM
[6] = biological target: T2, panel of more than 300 wild-type and mutant kinases (313 kinase panel) (Homo sapiens, UniProt P51817); details: kinase PRKX; 1 μM
T2 sequence (P51817 1-358): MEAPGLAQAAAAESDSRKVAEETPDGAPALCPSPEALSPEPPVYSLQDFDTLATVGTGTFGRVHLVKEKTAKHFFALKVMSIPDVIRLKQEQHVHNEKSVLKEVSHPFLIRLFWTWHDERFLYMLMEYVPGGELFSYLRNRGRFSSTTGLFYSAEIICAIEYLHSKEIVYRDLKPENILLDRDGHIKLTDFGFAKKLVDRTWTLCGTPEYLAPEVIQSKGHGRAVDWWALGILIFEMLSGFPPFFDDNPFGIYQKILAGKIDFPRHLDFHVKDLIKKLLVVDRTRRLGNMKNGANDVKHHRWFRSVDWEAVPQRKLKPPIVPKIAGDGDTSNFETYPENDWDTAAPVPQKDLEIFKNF

[7] = biological target: panel of more than 300 wild-type and mutant kinases (313 kinase panel) (Homo sapiens, UniProt Q9UQM7); details: kinase CaMK2α; 1 μM compound
[8] = biological target: T3, panel of more than 300 wild-type and mutant kinases (313 kinase panel) (Homo sapiens, UniProt P42680); details: kinase TEC; 1 μM
T3 sequence (P42680 1-631): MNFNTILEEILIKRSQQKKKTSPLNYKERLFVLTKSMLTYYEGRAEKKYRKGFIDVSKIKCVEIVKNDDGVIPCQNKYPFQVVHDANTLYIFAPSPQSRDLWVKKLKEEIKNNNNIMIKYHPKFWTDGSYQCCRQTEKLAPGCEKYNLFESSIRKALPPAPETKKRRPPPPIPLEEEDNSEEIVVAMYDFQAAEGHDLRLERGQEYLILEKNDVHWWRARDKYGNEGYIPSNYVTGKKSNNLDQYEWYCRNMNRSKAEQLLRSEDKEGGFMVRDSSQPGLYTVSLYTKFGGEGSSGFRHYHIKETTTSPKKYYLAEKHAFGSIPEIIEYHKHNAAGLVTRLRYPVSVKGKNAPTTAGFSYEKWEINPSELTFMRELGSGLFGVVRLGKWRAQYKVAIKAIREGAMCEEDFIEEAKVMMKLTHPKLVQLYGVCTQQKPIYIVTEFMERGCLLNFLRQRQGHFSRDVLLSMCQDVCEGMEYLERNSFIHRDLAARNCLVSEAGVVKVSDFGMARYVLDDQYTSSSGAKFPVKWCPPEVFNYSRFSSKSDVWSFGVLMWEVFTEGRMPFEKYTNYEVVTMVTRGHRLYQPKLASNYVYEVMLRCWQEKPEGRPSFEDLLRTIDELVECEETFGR

Sequence of panel of more than 300 wild-type and mutant kinases (313 kinase panel) (Homo sapiens, UniProt P06239) (P06239 whole entry, change not shown): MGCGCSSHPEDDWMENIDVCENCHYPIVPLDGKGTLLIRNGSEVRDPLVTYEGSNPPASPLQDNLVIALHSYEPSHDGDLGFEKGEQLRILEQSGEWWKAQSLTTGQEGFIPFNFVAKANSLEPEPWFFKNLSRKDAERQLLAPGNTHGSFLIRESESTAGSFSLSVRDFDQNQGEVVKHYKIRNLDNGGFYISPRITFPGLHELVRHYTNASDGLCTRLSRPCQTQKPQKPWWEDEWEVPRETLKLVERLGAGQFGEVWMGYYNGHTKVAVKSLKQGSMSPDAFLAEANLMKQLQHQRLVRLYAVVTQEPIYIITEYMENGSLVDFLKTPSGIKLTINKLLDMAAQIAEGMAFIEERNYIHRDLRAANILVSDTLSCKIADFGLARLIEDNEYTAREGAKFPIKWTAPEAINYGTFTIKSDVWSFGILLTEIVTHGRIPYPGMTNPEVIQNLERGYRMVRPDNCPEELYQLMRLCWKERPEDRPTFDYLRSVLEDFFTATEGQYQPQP
Sequence of panel of more than 300 wild-type and mutant kinases (313 kinase panel) (Homo sapiens, UniProt Q9UQM7) (Q9UQM7 whole entry, change not shown): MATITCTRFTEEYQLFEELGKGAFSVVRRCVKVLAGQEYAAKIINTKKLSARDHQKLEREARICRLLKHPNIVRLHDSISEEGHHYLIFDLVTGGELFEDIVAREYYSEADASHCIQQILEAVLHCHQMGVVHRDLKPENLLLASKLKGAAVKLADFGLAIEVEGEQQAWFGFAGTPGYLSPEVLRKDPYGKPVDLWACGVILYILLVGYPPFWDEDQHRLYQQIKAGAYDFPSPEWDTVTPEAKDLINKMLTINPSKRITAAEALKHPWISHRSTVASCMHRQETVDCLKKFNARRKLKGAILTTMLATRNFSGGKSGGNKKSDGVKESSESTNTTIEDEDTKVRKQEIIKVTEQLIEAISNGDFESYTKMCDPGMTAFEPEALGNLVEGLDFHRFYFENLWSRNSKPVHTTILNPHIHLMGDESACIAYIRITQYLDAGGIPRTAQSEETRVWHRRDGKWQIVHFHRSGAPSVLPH
Sequence of panel of more than 300 wild-type and mutant kinases (313 kinase panel) (Homo sapiens, UniProt P16591) (P16591 whole entry, change not shown): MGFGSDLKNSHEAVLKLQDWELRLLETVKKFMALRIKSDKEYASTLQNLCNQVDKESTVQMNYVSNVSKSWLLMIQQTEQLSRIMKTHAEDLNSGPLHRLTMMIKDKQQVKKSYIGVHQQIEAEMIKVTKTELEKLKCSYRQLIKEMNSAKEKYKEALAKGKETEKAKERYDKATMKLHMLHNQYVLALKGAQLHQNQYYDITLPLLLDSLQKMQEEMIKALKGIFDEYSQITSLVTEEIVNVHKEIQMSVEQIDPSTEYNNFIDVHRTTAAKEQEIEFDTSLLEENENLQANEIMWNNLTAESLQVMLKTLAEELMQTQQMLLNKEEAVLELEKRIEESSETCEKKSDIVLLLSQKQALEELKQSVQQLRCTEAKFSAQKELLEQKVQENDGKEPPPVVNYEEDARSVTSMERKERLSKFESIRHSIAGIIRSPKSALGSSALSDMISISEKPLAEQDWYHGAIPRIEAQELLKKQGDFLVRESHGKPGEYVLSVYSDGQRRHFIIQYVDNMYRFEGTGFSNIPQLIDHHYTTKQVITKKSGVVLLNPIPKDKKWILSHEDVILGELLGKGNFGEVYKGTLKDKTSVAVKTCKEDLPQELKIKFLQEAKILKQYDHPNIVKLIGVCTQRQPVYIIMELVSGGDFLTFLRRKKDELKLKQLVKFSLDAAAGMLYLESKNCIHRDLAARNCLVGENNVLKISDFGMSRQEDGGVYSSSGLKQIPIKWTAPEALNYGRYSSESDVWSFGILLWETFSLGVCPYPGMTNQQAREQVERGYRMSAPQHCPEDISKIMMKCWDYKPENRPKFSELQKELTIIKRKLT
Sequence of panel of more than 300 wild-type and mutant kinases (313 kinase panel) (Homo sapiens, UniProt P29597) (P29597 whole entry, change not shown): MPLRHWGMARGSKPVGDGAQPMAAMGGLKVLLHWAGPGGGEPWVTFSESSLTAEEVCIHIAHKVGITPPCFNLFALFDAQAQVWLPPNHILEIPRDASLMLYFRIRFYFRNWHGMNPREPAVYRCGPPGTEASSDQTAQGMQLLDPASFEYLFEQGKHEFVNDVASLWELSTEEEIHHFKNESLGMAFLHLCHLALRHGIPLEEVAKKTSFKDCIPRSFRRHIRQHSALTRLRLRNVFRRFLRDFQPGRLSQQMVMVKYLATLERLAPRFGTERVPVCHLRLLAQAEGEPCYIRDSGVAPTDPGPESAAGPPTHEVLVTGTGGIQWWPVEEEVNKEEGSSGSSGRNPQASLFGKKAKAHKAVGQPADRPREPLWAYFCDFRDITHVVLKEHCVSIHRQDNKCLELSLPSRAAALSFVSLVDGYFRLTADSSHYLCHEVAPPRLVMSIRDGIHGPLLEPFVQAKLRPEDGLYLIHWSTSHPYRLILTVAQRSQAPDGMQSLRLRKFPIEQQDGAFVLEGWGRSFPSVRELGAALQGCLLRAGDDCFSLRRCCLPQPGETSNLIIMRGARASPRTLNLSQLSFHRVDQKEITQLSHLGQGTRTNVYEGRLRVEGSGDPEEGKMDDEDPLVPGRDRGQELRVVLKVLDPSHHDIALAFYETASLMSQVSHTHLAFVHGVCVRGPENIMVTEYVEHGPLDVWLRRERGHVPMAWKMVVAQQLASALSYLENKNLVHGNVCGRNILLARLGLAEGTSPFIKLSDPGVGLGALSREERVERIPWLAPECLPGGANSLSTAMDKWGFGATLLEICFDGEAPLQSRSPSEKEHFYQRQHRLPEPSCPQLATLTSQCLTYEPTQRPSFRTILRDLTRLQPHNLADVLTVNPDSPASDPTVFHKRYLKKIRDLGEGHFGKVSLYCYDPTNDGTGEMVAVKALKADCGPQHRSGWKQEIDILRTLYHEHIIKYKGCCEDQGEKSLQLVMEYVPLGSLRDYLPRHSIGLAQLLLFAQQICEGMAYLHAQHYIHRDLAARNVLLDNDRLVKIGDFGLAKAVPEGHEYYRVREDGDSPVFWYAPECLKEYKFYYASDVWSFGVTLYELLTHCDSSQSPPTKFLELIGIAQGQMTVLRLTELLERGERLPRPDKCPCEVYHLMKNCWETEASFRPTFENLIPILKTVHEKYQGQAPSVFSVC

SMILES	%-inhibition of DAPK1 [1]	%-inhibition of LCK [2]	%-inhibition of TYK2 [3]	%-inhibition of MER [4]	%-inhibition of FER [5]	%-inhibition of PRKX [6]	%-inhibition, CaMK2α [7]	%-inhibition of TEC [8]
Cc1ccc(Nc2nccc(N(C)c3ccc4c(C)n(C)nc4c3)n2)cc1S(N)(=O)=O [pazopanib]	0.316%	73%	5.31%	34%	81%	-1.14%	-0.797%	48%
CNC(=O)c1cc(Oc2ccc(NC(=O)Nc3ccc(Cl)c(C(F)(F)F)c3)c(F)c2)ccn1 [regorafenib]	-11%	85%	-3.68%	29%	-2%	-5.52%	-1.57%	-8%
CO[C@H]1C[C@@H]2CC[C@@H](C)[C@@](O)(O2)C(=O)C(=O)N2CCCC[C@H]2C(=O)O[C@H]([C@H](C)C[C@@H]2CC[C@@H](OC(=O)C(C)(CO)CO)[C@H](OC)C2)CC(=O)[C@H](C)/C=C(\C)[C@@H](O)[C@@H](OC)C(=O)[C@H](C)C[C@H](C)/C=C/C=C/C=C/1C [temsirolimus]	-8%	-2.22%	-6.58%	-3.24%	-4%	-1.9%	-7%	-9%
CC(=O)Nc1cccc(-n2c(=O)n(C3CC3)c(=O)c3c(Nc4ccc(I)cc4F)n(C)c(=O)c(C)c32)c1 [trametinib]	-6%	-7%	2.16%	-6.62%	4.28%	-1.19%	-1.65%	-7.53%
CCCS(=O)(=O)Nc1ccc(F)c(C(=O)c2c[nH]c3ncc(-c4ccc(Cl)cc4)cc23)c1F [vemurafenib]	-0.115%	81%	6%	6%	11%	-3.45%	-4.25%	-0.191%
